Assay results published in ChEMBL document CHEMBL4330128, “Discovery of two novel branched peptidomimetics containing endomorphin-2 and RF9 pharmacophores: Synthesis and neuropharmacological evaluation” (Bioorg Med Chem, 2019).
The source made the active and inactive calls. The rule behind the calls is not given here. Where a SMILES comes first, the peptide text is derived from it. Side-chain parts run from the residue outwards. The star is where a group is joined. Adamantane1carbonyl = O=C(C12CC3CC(CC(C3)C1)C2)*

Tests used:
Mus musculus [1] = assay: Antinociceptive activity in Kunming mouse model of thermal-induced nociception assessed as increase in latency to tail withdrawal at 10 nmol, icv measured up to 60 mins by tail flick test; type: functional, organism-based
[2] = target: Neuropeptide FF receptor 2 (Mus musculus) (UniProt Q924H0); assay: Antagonist activity at NPFF2 receptor in mouse Neuro2a cells assessed as inhibition of NPFF-induced neurite outgrowth by measuring neurite outgrowth at 10 uM after 18 hrs by phase contrast microscopic analysis (reference value: 24.05 +/- 1.19%); type: cell-based; set-up: scale not given: the % may be the effect or the level left
[3] = target: T1, Neuropeptide FF receptor 1 (Homo sapiens, UniProt Q9GZQ6); assay: Antagonist activity at NPFF1 receptor (unknown origin) expressed in HEK293A cells assessed as reversal of […] induced inhibition of forskolin-stimulated cAMP accumulation measured after 30 mins; type: functional, cell-based
Mus musculus [4] = assay: Antiallodynic activity in carrageenan-induced Kunming mouse model of mechanical hyperalgesia administered as intrathecal injection after 10 to 90 mins by Von Frey filament assay; type: functional
Mus musculus [5] = assay: Antiallodynic activity in carrageenan-induced Kunming mouse model of mechanical hyperalgesia administered as intrathecal injection after 10 to 90 mins in presence of opioid receptor antagonist naloxone by Von Frey filament assay; type: functional, organism-based
Mus musculus [6] = assay: Antiallodynic activity in carrageenan-induced Kunming mouse model of mechanical hyperalgesia administered as intrathecal injection after 10 to 90 mins in presence of NPFF receptor antagonist RF9 by Von Frey filament assay; type: functional, organism-based
Mu-type opioid receptor = Mu-type opioid receptor (Homo sapiens, UniProt P35372); assay: Agonist activity at mu-opioid receptor (unknown origin) expressed in HEK293A cells assessed as inhibition of forskolin-induced cAMP accumulation measured after 30 mins; type: functional, cell-based
Mus musculus [7] = assay: Antinociceptive activity in Kunming mouse model of thermal-induced nociception assessed as increase in latency to tail withdrawal at 2 to 4 nmol, icv administered once daily for 8 days measured daily at 30 mins post dose in presence of NPFF receptor antagonist RF9 by tail flick test; type: functional, organism-based
[8] = target: T2, Neuropeptide FF receptor 2 (Homo sapiens, UniProt Q9Y5X5); assay: Agonist activity at NPFF2 receptor (unknown origin) expressed in HEK293A cells assessed as inhibition of forskolin-stimulated cAMP accumulation measured after 30 mins; type: functional, cell-based
N2a = assay: Effect on neurite outgrowth in mouse Neuro2a cells at 10 uM after 18 hrs by phase contrast microscopic analysis relative to control; type: cell-based
[9] = target: T1, Neuropeptide FF receptor 1; assay: Agonist activity at NPFF1 receptor (unknown origin) expressed in HEK293A cells assessed as inhibition of forskolin-stimulated cAMP accumulation measured after 30 mins; type: functional, cell-based
Mus musculus [10] = assay: Antinociceptive activity in Kunming mouse model of thermal-induced nociception assessed as increase in latency to tail withdrawal at 10 nmol, icv measured up to 60 mins in presence of NPFF receptor antagonist RF9 by tail flick test; type: functional, organism-based
[11] = target: Delta-type opioid receptor (Homo sapiens, UniProt P41143); assay: Agonist activity at delta-opioid receptor (unknown origin) expressed in HEK293A cells assessed as inhibition of forskolin-induced cAMP accumulation measured after 30 mins; type: functional, cell-based
[12] = Toxicity in Kunming mouse assessed as impairment of motor coordination at 20 nmol, icv measured after 10 to 40 mins by rotarod test; conditions: in vivo, icv_or_intrathecal
[13] = Toxicity in Kunming mouse assessed as inhibition of gastrointestinal transit by measuring reduction in distance traveled by charcoal at 10 mg/kg, ip dosed 15 mins prior charcoal meal measured after 30 mins; type: organism-based; conditions: in vivo, 0.5 h
Mus musculus [14] = assay: Antinociceptive activity in icv dosed Kunming mouse model of thermal-induced nociception assessed as increase in latency to tail withdrawal by tail flick test; type: functional
Mus musculus [15] = assay: Antinociceptive activity in Kunming mouse model of thermal-induced nociception assessed as increase in latency to tail withdrawal at 20 nmol, icv measured up to 60 mins in presence of opioid receptor antagonist naloxone by tail flick test; type: functional, organism-based
[16] = target: Kappa-type opioid receptor (Homo sapiens) (UniProt P41145)
Description: Agonist activity at kappa-opioid receptor (unknown origin) expressed in HEK293A cells assessed as inhibition of forskolin-induced cAMP accumulation measured after 30 mins

Mus musculus [17] = assay: Antinociceptive activity in Kunming mouse model of thermal-induced nociception assessed as increase in latency to tail withdrawal at 20 nmol, icv measured up to 60 mins in presence of mu-opioid receptor antagonist beta-FNA by tail flick test; type: functional, organism-based
[18] = target: T2, Neuropeptide FF receptor 2; assay: Antagonist activity at NPFF2 receptor (unknown origin) expressed in HEK293A cells assessed as reversal of […] induced inhibition of forskolin-stimulated cAMP accumulation measured after 30 mins; type: functional, cell-based
Mus musculus [19] = assay: Antinociceptive activity in Kunming mouse model of thermal-induced nociception assessed as increase in latency to tail withdrawal at 20 nmol, icv measured up to 60 mins in presence of kappa-opioid receptor antagonist nor-BNI by tail flick test; type: functional, organism-based
[20] = Toxicity in Kunming mouse assessed as inhibition of gastrointestinal transit by measuring reduction in distance traveled by charcoal at 5 to 20 nmol, icv dosed 15 mins prior charcoal meal measured after 30 mins; type: organism-based; conditions: in vivo, icv_or_intrathecal, 0.5 h
[21] = Toxicity in Kunming mouse assessed as impairment of motor coordination at 20 nmol, it measured after 10 to 40 mins by rotarod test; conditions: in vivo, icv_or_intrathecal
Mus musculus [22] = assay: Antinociceptive activity in Kunming mouse model of thermal-induced nociception assessed as increase in latency to tail withdrawal at 20 nmol, icv measured up to 60 mins in presence of delta-opioid receptor antagonist naltrindole by tail flick test; type: functional, organism-based
Mus musculus [23] = assay: Antinociceptive activity in Kunming mouse model of thermal-induced nociception assessed as increase in latency to tail withdrawal at 10 to 20 nmol, icv administered once daily for 5 to 8 days measured daily at 30 mins post dose by tail flick test; type: functional, organism-based
[24] = target: T2, Neuropeptide FF receptor 2; assay: Agonist activity at NPFF2 receptor (unknown origin) expressed in HEK293A cells assessed as inhibition of forskolin-stimulated cAMP accumulation measured after 30 mins relative to NPFF; type: functional, cell-based
[25] = Toxicity in Kunming mouse assessed as inhibition of gastrointestinal transit by measuring reduction in distance traveled by charcoal at 10 to 30 mg/kg, ip dosed 15 mins prior charcoal meal measured after 30 mins; type: organism-based; conditions: in vivo, 0.5 h
Mus musculus [26] = assay: Antinociceptive activity in icv dosed Kunming mouse model of thermal-induced nociception assessed as increase in latency to tail withdrawal up to 60 mins radiant heat tail flick method; type: functional
Mus musculus [27] = assay: Antinociceptive activity in Kunming mouse model of thermal-induced nociception assessed as increase in latency to tail withdrawal at 2 to 4 nmol, icv administered once daily for 5 days measured daily at 30 mins post dose by tail flick test; type: functional, organism-based
Mus musculus [28] = assay: Antinociceptive activity in Kunming mouse model of thermal-induced nociception assessed as increase in latency to tail withdrawal at 4 nmol, icv administered once daily for 8 days measured daily at 30 mins post dose by tail flick test relative to control; type: functional
Mus musculus [29] = assay: Antinociceptive activity in Kunming mouse model of thermal-induced nociception assessed as increase in latency to tail withdrawal at 2 nmol, icv administered once daily for 8 days measured daily at 30 mins post dose by tail flick test relative to control; type: functional
Mus musculus [30] = assay: Antinociceptive activity in Kunming mouse model of thermal-induced nociception assessed as increase in latency to tail withdrawal at 2 to 4 nmol, icv administered once daily for 8 days measured on days 6 to 8 at 30 mins post dose in presence of NPFF receptor antagonist RF9 by tail flick test; type: functional, organism-based
Mus musculus [31] = assay: Antinociceptive activity in Kunming mouse model of thermal-induced nociception assessed as increase in latency to tail withdrawal at 5 nmol, icv measured up to 60 mins by tail flick test; type: functional, organism-based

T2 sequence (Q9Y5X5 whole entry): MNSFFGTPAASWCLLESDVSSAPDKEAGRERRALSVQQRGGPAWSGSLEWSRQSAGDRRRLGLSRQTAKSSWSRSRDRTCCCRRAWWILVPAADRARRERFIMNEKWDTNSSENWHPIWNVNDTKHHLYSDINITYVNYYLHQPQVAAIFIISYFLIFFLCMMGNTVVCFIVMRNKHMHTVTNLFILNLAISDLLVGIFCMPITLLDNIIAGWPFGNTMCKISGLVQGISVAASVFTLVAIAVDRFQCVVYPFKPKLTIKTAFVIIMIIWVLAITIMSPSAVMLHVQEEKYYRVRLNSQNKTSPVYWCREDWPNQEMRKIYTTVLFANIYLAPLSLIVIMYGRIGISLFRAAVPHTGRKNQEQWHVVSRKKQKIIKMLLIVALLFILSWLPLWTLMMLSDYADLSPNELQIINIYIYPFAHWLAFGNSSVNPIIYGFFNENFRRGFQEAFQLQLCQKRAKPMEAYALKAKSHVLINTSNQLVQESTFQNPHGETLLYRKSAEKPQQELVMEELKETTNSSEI
Sequence of Mu-type opioid receptor (P35372 whole entry): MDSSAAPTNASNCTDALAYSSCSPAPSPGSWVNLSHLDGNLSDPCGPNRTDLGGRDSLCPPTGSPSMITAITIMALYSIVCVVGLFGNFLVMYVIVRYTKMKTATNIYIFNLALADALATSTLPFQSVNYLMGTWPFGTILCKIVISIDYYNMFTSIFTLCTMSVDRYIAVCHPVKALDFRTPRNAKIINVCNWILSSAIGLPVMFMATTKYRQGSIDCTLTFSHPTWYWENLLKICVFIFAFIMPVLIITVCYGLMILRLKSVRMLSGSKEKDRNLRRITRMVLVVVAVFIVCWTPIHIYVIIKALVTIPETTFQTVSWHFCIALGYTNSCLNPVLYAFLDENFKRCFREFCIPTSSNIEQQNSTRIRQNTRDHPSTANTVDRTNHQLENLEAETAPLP
Sequence of Neuropeptide FF receptor 2 (Mus musculus) (Q924H0 whole entry): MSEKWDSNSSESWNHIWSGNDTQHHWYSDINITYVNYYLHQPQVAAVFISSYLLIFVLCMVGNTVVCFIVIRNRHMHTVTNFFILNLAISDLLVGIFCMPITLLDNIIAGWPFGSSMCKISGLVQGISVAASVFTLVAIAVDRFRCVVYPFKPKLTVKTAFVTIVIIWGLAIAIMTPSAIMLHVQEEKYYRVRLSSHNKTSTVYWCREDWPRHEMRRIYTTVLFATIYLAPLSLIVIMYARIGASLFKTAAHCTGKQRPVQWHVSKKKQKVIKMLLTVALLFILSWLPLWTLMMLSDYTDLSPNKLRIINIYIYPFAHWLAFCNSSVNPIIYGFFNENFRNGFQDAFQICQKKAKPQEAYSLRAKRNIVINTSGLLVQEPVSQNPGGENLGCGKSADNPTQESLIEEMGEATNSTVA
Sequence of Delta-type opioid receptor (P41143 whole entry): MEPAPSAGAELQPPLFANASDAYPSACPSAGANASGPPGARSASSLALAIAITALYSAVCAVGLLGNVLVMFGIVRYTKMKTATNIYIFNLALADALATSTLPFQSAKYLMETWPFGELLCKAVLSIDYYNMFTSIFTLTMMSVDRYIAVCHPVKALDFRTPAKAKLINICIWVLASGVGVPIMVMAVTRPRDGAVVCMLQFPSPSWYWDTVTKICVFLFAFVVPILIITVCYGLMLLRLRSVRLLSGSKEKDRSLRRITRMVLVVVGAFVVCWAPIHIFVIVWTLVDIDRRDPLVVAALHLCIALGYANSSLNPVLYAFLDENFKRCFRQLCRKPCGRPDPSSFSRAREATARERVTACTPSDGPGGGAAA
T1 sequence (Q9GZQ6 whole entry): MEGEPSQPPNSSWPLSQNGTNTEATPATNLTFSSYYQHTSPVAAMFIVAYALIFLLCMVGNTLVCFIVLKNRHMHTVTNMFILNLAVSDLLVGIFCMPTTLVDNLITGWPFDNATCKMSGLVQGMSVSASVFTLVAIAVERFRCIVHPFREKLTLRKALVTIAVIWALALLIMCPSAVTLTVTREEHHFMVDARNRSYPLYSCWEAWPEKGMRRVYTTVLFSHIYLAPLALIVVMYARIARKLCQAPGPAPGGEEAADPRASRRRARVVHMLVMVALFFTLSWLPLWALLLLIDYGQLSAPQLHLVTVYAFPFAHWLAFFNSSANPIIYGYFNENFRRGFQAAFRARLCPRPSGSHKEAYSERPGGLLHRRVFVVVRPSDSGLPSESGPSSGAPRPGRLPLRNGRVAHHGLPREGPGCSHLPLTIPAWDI
Sequence of Kappa-type opioid receptor (Homo sapiens) (P41145 whole entry): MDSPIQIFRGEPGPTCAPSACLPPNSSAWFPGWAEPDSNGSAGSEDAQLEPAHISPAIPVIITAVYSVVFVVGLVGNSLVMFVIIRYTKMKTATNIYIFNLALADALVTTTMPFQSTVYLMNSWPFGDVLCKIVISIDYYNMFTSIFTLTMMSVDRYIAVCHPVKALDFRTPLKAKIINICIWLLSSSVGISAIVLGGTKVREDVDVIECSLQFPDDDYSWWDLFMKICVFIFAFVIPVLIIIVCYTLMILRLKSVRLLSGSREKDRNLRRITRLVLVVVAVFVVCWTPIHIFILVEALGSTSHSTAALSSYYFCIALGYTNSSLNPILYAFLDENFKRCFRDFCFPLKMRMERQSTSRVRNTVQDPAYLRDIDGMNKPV

N=C(N)NCCC[C@H](NC(=O)C12CC3CC(CC(C3)C1)C2)C(=O)N[C@@H](Cc1ccccc1)C(N)=O
Activity (Mus musculus [1]): inactive
Activity [2]: 12.9%
inhibition [3]: Dose-dependent effect

CC(C)C[C@H](NC(=O)[C@H](Cc1ccccc1)NC(=O)[C@H](C)N(C)C(=O)[C@@H]1CCCN1C(=O)[C@H](N)CC(N)=O)C(=O)N[C@@H](Cc1ccccc1)C(=O)N[C@@H](CCC(N)=O)C(=O)N1CCC[C@H]1C(=O)N[C@@H](CCC(N)=O)C(=O)N[C@@H](CCCNC(=N)N)C(=O)N[C@@H](Cc1ccccc1)C(N)=O
Activity (Mus musculus [4]): Dose-dependent effect
ED50 (Mus musculus [4]): 26.2 nmol
Activity (Mus musculus [5]): inactive
Activity (Mus musculus [6]): inactive

N=C(N)NCCC[C@H](NC(=O)C12CC3CC(CC(C3)C1)C2)C(=O)N[C@@H](Cc1ccccc1)C(=O)N[C@@H](CCCCNC(=O)[C@H](Cc1ccccc1)NC(=O)[C@H](Cc1ccccc1)NC(=O)[C@@H]1CCCN1C(=O)[C@@H](N)Cc1ccc(O)cc1)C(N)=O
EC50 (Mu-type opioid receptor): 1900 nM
Emax (Mu-type opioid receptor): 62%
Activity (Mus musculus [7]): Active
EC50 [8]: 250 nM
Emax [8]: 31.3%
inhibition [8]: Dose-dependent effect
Activity [2]: 14.1%
Activity (Mus musculus [4]): Dose-dependent effect
ED50 (Mus musculus [4]): 8.16 nmol
Activity (N2a): 12.71%
Emax [9]: inactive
pEC50 [9]: inactive
Activity (Mus musculus [10]): Active
Activity (Mus musculus [5]): inactive
Emax [11]: inactive
pEC50 [11]: inactive
Activity [12]: Non-Toxic
Activity [13]: Non-Toxic
ED50 (Mus musculus [14]): 4.8 nmol
Activity (Mus musculus [15]): inactive
pEC50 [16]: inactive
IC50 [3]: 190 nM
inhibition [3]: Dose-dependent effect
Activity (Mus musculus [17]): inactive
IC50 [18]: 190 nM
Activity (Mus musculus [19]): Active
Activity [20]: Non-Toxic
Activity (Mus musculus [6]): inactive
Activity [21]: Non-Toxic
Activity (Mus musculus [22]): Active
Activity (Mus musculus [23]): Active
Emax [24]: 60%

NC(=O)[C@H](Cc1ccccc1)NC(=O)[C@H](Cc1ccccc1)NC(=O)[C@@H]1CCCN1C(=O)[C@@H](N)Cc1ccc(O)cc1 [ENDOMORPHIN 2]
Emax (Mu-type opioid receptor): 76.8%
Activity (N2a): 16.49%
Activity [25]: Non-Toxic
ED50 (Mus musculus [26]): 6.88 nmol

CN1CC[C@]23c4c5ccc(O)c4O[C@H]2[C@@H](O)C=C[C@H]3[C@H]1C5 [MORPHINE]
Activity (Mus musculus [27]): inactive
Activity (Mus musculus [4]): Dose-dependent effect
ED50 (Mus musculus [4]): 0.44 nmol
MPE (Mus musculus [28]): 9.88%
Activity (Mus musculus [5]): inactive
MPE (Mus musculus [29]): 6.67%
Activity [13]: Toxic
Activity (Mus musculus [6]): Active
Activity (Mus musculus [30]): Active

C=CCN1CC[C@]23c4c5ccc(O)c4O[C@H]2C(=O)CC[C@@]3(O)[C@H]1C5
Activity (Mus musculus [31]): inactive

N=C(N)NCCC[C@H](NC(=O)C12CC3CC(CC(C3)C1)C2)C(=O)N[C@@H](Cc1ccccc1)C(=O)NCCCC[C@H](NC(=O)[C@H](Cc1ccccc1)NC(=O)[C@H](Cc1ccccc1)NC(=O)[C@@H]1CCCN1C(=O)[C@@H](N)Cc1ccc(O)cc1)C(N)=O (H-YPFFK([Phe-Arg-Adamantane1carbonyl])-NH2)
EC50 (Mu-type opioid receptor): 1770 nM
Emax (Mu-type opioid receptor): 54.3%
Activity (Mus musculus [7]): Active
EC50 [8]: 170 nM
Emax [8]: 26.6%
inhibition [8]: Dose-dependent effect
Activity [2]: 10.3%
Activity (Mus musculus [4]): Dose-dependent effect
ED50 (Mus musculus [4]): 9.25 nmol
Activity (N2a): 11.88%
Emax [9]: inactive
pEC50 [9]: inactive
Activity (Mus musculus [10]): Active
Activity (Mus musculus [5]): inactive
Emax [11]: 55.9%
EC50 ([11]; read-out: EC50): 2240 nM
EC50 ([11]; read-out: pEC50 (converted)): 2000 nM
Activity [12]: Non-Toxic
Activity [13]: Non-Toxic
ED50 (Mus musculus [14]): 6.27 nmol
Activity (Mus musculus [15]): inactive
pEC50 [16]: inactive
IC50 [3]: 520 nM
inhibition [3]: Dose-dependent effect
IC50 [18]: 520 nM
Activity [20]: Non-Toxic
Activity (Mus musculus [6]): inactive
Activity [21]: Non-Toxic
Activity (Mus musculus [23]): Active
Emax [24]: 50.9%

COC(=O)/C=C/C(=O)N[C@@H]1CC[C@@]2(O)[C@H]3Cc4ccc(O)c5c4[C@@]2(CCN3CC2CC2)[C@H]1O5
Activity (Mus musculus [1]): inactive

Oc1ccc2c3c1O[C@H]1c4[nH]c5ccccc5c4C[C@@]4(O)[C@@H](C2)N(CC2CC2)CC[C@]314
Activity (Mus musculus [1]): inactive

NC(=O)[C@H](Cc1ccccc1)NC(=O)[C@H](CCCN=C(N)N)NC(=O)C12CC3CC(CC(C3)C1)C2
Activity (N2a): 12.41%
IC50 [3]: 410 nM
IC50 [18]: 410 nM

Oc1ccc2c3c1O[C@H]1c4[nH]c5c(c4C[C@@]4(O)[C@@H](C2)N(CC2CC2)CC[C@]314)C[C@@]1(O)[C@H]2Cc3ccc(O)c4c3[C@@]1(CCN2CC1CC1)[C@H]5O4
Activity (Mus musculus [1]): inactive
